Experimental data taken from patent US12612412B2, “Antiviral heterocyclic compounds” (Enanta Pharmaceuticals, Inc., priority 2021, dated 2026).

Columns and labels:
[1] = test system: genotype A, "Long" strain RSV; test: RSV-A assay (CPE protection in Hep-2 cells, ATPlite readout); format: cell-based, Human respiratory syncytial virus (HRSV); conditions: human respiratory syncytial virus, genotype A “Long” strain RSV, MOI 0.1, CPE protection, read-out: Human RSV-A (“Long”)
How it was run: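 Compound effect on RSV-induced CPE: Hep-2 monolayers, MOI 0.1, duplicate 2-fold titrations, 5-day culture in 10% FBS DMEM. Readout is ATP-based luminescence, normalised to virus-only and no-virus controls, giving EC50.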

[2] = test system: HMPV clinical isolate TN/1501/A1; test: HMPV antiviral assay Method-B (clinical isolate TN/1501/A1 in LLC-MK2 cells, ATP-Lite readout); format: cell-based, Human metapneumovirus (HMPV); conditions: human metapneumovirus, LLC-MK2, 144 h, hMPV WT1501 (clinical isolate TN/1501/A1), 6 days
How it was run: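 EC50 derived by four-parameter logistic fit of percent cell health, measured by ATP-Lite luminescence and normalised to virus-only and uninfected-cell controls. Compounds run in duplicate from 10 μM top, 3-fold, 10 points. Infection: LLC-MK2 cells, MOI 0.014, 2 μg/mL final TPCK-trypsin, serum-free, 6 days at 37° C.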

Row | SMILES | EC50 [1] | EC50 [2]
1 | COc1cc(C(=O)NC[C@](O)(c2cc3c(c(-c4ccc5c(c4)OC(F)(F)O5)n2)OC[C@]3(C)C(N)=O)C2(F)CC2)cc2sc(C)nc12 [Example 727] | < 200 nM | < 500 nM
2 | COc1cc(C(=O)NC[C@](O)(c2cc3c(c(-c4ccc(F)cc4)n2)OC[C@]3(C)C(N)=O)C2CC2)cc2sc(C)nc12 [Example 728] | < 200 nM | < 500 nM
3 | COc1cc(C(=O)NC[C@](O)(c2cc3c(c(-c4ccc(F)cc4Cl)n2)OC[C@]3(C)C(N)=O)C2(F)CC2)cc2cn(C3CC3)nc12 [Example 732] | < 200 nM | < 500 nM
4 | COc1cc(C(=O)NC[C@](O)(c2cc3c(c(-c4cc(Cl)ccc4F)n2)OC[C@]3(C)C(N)=O)C2(F)CC2)cc2cn(C3CC3)nc12 [Example 735] | < 200 nM | < 500 nM
5 | Cc1nc2c(OC3CC3)cc(C(=O)NC[C@](O)(c3cc4c(c(-c5ccc(F)cc5)n3)OC[C@]4(C)C(N)=O)C3(F)CC3)cc2cc1Cl [Example 739] | < 200 nM | < 500 nM
6 | Cc1cnc2c(Cl)cc(C(=O)NC[C@](O)(c3cc4c(c(-c5ccc(F)cc5)n3)OC[C@]4(C)C(N)=O)C3CC3)cc2c1 [Example 740] | < 200 nM | < 500 nM
7 | COc1cc(C(=O)NC[C@](O)(c2cc3c(c(-c4ccc(F)cc4)n2)OC[C@]3(C)C(N)=O)C2CC2)cc2sc(C3CC3)nc12 [Example 741] | < 200 nM | < 500 nM
8 | COc1cc(C(=O)NC[C@](O)(c2cc3c(c(-c4ccc(F)cc4)n2)OC[C@]3(C)C(N)=O)C2(F)CC2)cc2sc(C3CC3)nc12 [Example 742] | < 200 nM | < 500 nM

Further lines, results first:

Row | EC50 [1] | EC50 [2] | SMILES
9 | < 200 nM | < 500 nM | COc1cc(C(=O)NC[C@](O)(c2cc3c(c(-c4ccc(F)c(F)c4F)n2)OC[C@]3(C)C(N)=O)C2(F)CC2)cc2cn(C3CC3)nc12 [Example 729]
10 | < 200 nM | < 500 nM | Cc1cnc2c(OC(F)F)cc(C(=O)NC[C@](O)(c3cc4c(c(-c5ccc(F)c(F)c5F)n3)OC[C@]4(C)C(N)=O)C3(F)CC3)cc2c1 [Example 730]
11 | < 200 nM | < 500 nM | COc1cc(C(=O)NC[C@](O)(c2cc3c(c(-c4ccc(F)c(F)c4F)n2)OC[C@]3(C)C(N)=O)C2(F)CC2)cc2cc(Cl)c(C)nc12 [Example 731]
12 | < 200 nM | < 500 nM | Cc1cnc2c(OC(F)F)cc(C(=O)NC[C@](O)(c3cc4c(c(-c5ccc(F)cc5Cl)n3)OC[C@]4(C)C(N)=O)C3(F)CC3)cc2c1 [Example 733]
13 | < 200 nM | < 500 nM | COc1cc(C(=O)NC[C@](O)(c2cc3c(c(-c4ccc(F)cc4Cl)n2)OC[C@]3(C)C(N)=O)C2(F)CC2)cc2cc(Cl)c(C)nc12 [Example 734]
14 | < 200 nM | < 500 nM | Cc1cnc2c(OC(F)F)cc(C(=O)NC[C@](O)(c3cc4c(c(-c5cc(Cl)ccc5F)n3)OC[C@]4(C)C(N)=O)C3(F)CC3)cc2c1 [Example 736]
15 | < 200 nM | < 500 nM | COc1cc(C(=O)NC[C@](O)(c2cc3c(c(-c4cc(Cl)ccc4F)n2)OC[C@]3(C)C(N)=O)C2(F)CC2)cc2cc(Cl)c(C)nc12 [Example 737]
16 | < 200 nM | < 500 nM | Cc1cnc2c(Cl)cc(C(=O)NC[C@](O)(c3cc4c(c(-c5ccc(F)cc5)n3)OC[C@]4(C)C(N)=O)C3(F)CC3)cc2c1 [Example 738]
17 | < 200 nM | < 500 nM | COc1cc(C(=O)NC[C@](O)(c2cc3c(c(-c4ccc(F)c(F)c4F)n2)OC[C@]3(C)C(N)=O)C2(F)CC2)cc2cn(C3(F)CC3)nc12 [Example 743]
18 | < 200 nM | < 500 nM | COc1cc(C(=O)NC[C@](O)(c2cc3c(c(-c4ccc(F)c(F)c4F)n2)OC[C@]3(C)C(N)=O)C2(F)CC2)cc2cn(C(F)F)nc12 [Example 744]
19 | < 200 nM | < 500 nM | COc1cc(C(=O)NC[C@](O)(c2cc3c(c(-c4ccc(F)c(F)c4Cl)n2)OC[C@]3(C)C(N)=O)C2(F)CC2)cc2cn(C3CC3)nc12 [Example 745]
